Reference: publication PMC6271703, “Absorbability, Mechanism and Structure-Property Relationship of Three Phenolic Acids from the Flowers of Trollius chinensis” (Molecules, 2014)
In brackets after ≈: the same amount, converted by molar mass.

Assays:
[1] = system: Caco-2 cells; test: MTT assay on Caco-2 cells; type: cell-based, human; conditions: for Survival Rate: 4 h, n = 4
Procedure: Caco-2 cells at logarithmic growth phase were seeded onto 96-well plates and incubated at 37 °C in culture hood. The culture medium was removed after cells formed a full layer, and each 100 μL of HBSS solution (negative control group) and drug-containing HBSS solution (three phenolic acids at the concentrations of 25, 50 and 100 μmol/L, respectively) was added to each well. When the plates were cultured for 4 h, HBSS solution was completely transferred out and each 100 μL of MTT solution (0.5 mg/mL) was added to each well. MTT solution was removed carefully after 4 hours of incubation at 37 °C, and each 150 μL of DMSO was added to each well, then culture vessels were agitated on an orbital shaker for 10 min and absorbance was read on a microplate reader at 570 nm.
(§1) The cell survival rate (%) was calculated using the equation survival rate= A/A0 × 100, wherein A was the average absorbance value of treatment group; A0 was the average absorbance value of the blank control group. The Papp was determined in this study by HPLC quantification of the compounds in the receiver chamber after transport across the Caco-2 monolayer. The calculation was described by the equation Papp = (dQ/dt) × (1/A) × (1/C0), wherein dQ/dt was the rate of appearance of the test compound on the receiver compartment (μmol/s); C0 was the initial test compound concentration on the donor compartment (μmol/mL); and A was the surface area of Caco-2 monolayer (cm^2).

[2] = Caco-2 cell monolayer transport experiment; type: in vitro ADME; conditions: human; for Papp A→B at 90 min, 25 μmol/L / Papp B→A at 90 min, 25 μmol/L / Papp A→B at 90 min, 50 μmol/L / Papp B→A at 90 min, 50 μmol/L / Papp B→A at 90 min, 100 μmol/L / Papp A→B at 90 min / Papp B→A at 90 min: incubation up to 90 min; for Papp A→B at 90 min, 25 μmol/L / Papp B→A at 90 min, 25 μmol/L / Papp A→B at 90 min, 50 μmol/L / Papp B→A at 90 min, 50 μmol/L / Papp B→A at 90 min, 100 μmol/L: n = 3; for Papp A→B at 90 min / Papp B→A at 90 min: average of 25, 50 and 100 μmol/L; for Papp at 90 min: monitored for 90 min, read-out: bidirectional Papp level (AP to BL and BL to AP)
[3] = system: influenza A; set-up: method as in ref [7] = [7]; 7. Wang R.F. The Constituents and Bioactivities of Jinlianhua and Pangdahai Doctoral Thesis Peking University Bejing, China 2003; conditions: antiviral, ref [7]; cited from earlier work
[4] = Caco-2 cell monolayer transport experiment; type: in vitro ADME; conditions: human; for Papp A→B at 90 min, 100 μmol/L: incubation up to 90 min, n = 3
Procedure: To facilitate the cells’ differentiation and formation of a confluent monolayer, Caco-2 cells were seeded at a density of 1.0 × 10^5 cells/cm^2 on a 12-well Transwell insert filter. The inserts were fed with culture medium at 2 days intervals in the first week, and then at daily intervals for the AP side and 2 days intervals for the BL side until they were used for the transport experiment 21 days after seeding. The AP and BL sides contained 0.5 mL and 1.5 mL of culture medium, respectively. […] The cell inserts were used after the resistance reached above 600 Ω∙cm^2.
On day 21, transport study was initiated by careful removal of the culture medium from AP and BL sides. Caco-2 monolayers were rinsed twice with pre-warmed HBSS and were incubated by pre-warmed HBSS for 30 min at 37 °C. PA, GA and TS were dissolved in DMSO, and diluted to the concentration of 25, 50 and 100 μmol/L with HBSS. The final DMSO concentration was less than 1%. Test compounds were added to the AP side (0.5 mL) or BL side (1.5 mL) of the inserts, while the receiving chamber contained the corresponding volume of HBSS. […] At 30, 60, 90, 120, 150 and 180 min, 0.2 mL of solutions from BL side or AP side were collected, and replaced with an equal volume of HBSS. Samples were frozen immediately and stored below −20 °C before analysis. Upon completion of all permeation experiments, TEER values were measured to ensure that cell monolayer integrity and viability had not been adversely affected by experimental conditions.
as §1
The percentage transported (%) was calculated using the equation % Transported = QB/(CS × VD) × 100, wherein QB was the amount of compounds in the receiver compartment(μmol); CS was the donor concentration of test compounds (μmol/L); VD was the volume of the donor compartment (L). The transport rate (μmol/h/cm^2) was calculated using the equation transport rate = QB/(t × A), wherein QB was the amount of compounds in the receiver compartment(μmol); t was the incubating time (h); A was the surface area of Caco-2 monolayer (cm^2).

[5] = system: Streptococcus pneumonia; set-up: method as in ref [7] = [7]; 7. Wang R.F. The Constituents and Bioactivities of Jinlianhua and Pangdahai Doctoral Thesis Peking University Bejing, China 2003; conditions: ref [7]; cited from earlier work
[6] = system: Para 3; set-up: method as in ref [6] = [6]; 6. Li Q.F. Feng S.Q. Li Y.L. Cen Y.Z. Yang Y.T. Wang L.Y. Study on the antibacterial and antiviral activity compositions of Trollius chinensis Bunge J. Zhejiang Univ. (Sci. Ed.) 2004 31 412 415; conditions: antiviral, ref [6]; cited from earlier work
[7] = system: Pseudomonas aeruginosa; set-up: method as in PMID 11849843; conditions: ref [4],[5]; cited from earlier work
[8] = system: Staphylococcus aureus; set-up: method as in PMID 11849843; conditions: ref [4],[5]; cited from earlier work

Row | SMILES | Survival Rate ([1]; 25 μmol/L) [%] | Survival Rate ([1]; 50 μmol/L) [%] | Survival Rate ([1]; 100 μmol/L) [%] | Papp A→B at 90 min, 25 μmol/L [2] [×10⁻⁶ cm/s] | Papp B→A at 90 min, 25 μmol/L [2] [×10⁻⁶ cm/s] | Papp A→B at 90 min, 50 μmol/L [2] [×10⁻⁶ cm/s] | Papp B→A at 90 min, 50 μmol/L [2] [×10⁻⁶ cm/s] | Papp B→A at 90 min, 100 μmol/L [2] [×10⁻⁶ cm/s] | Papp A→B at 90 min [2] [×10⁻⁶ cm/s] | Papp B→A at 90 min [2] [×10⁻⁶ cm/s] | Papp at 90 min [2] [×10⁻⁶ cm/s] | IC50 [3] [µg/mL] | Papp A→B at 90 min, 100 μmol/L [4] [×10⁻⁶ cm/s] | MIC [5] [µg/mL] | Survival rate of Caco-2 cells ([1]; at different concentrations (25, 50, 100 μmol/L)) | IC50 [6] [µg/mL] | MIC [7] [µg/mL] | MIC [8] [µg/mL] | Papp at 180 min ([4]; standard markers added to the AP side, model validation, read-out: Papp of reference controls) [×10⁻⁶ cm/s]
1 | COc1cc(C(=O)O)cc2c1OC(C)(C)CC2 [GA, 8-methoxy-2,2-dimethylchroman-6-carboxylic acid] | 107.1 ± 5.7 | 118.9 ± 13.7 | 123.6 ± 6.2 | 21.4 ± 2 | 22.1 ± 0.8 | 15.9 ± 0.2 | 20 ± 0.7 | 19.4 ± 1 | 18.1 ± 1.1 | 20.5 ± 0.8 | ~10 | 42.1 (≈ 178 µM) | 17 ± 1.2 | – | – | – | – | – | –
2 | COc1cc(C(=O)O)cc(CC=C(C)C)c1O[C@@H]1O[C@H](CO)[C@@H](O)[C@H](O)[C@H]1O [TS, 3-methoxy-5-(3-methylbut-2-en-1-yl)-4-(((2S,3R,4S,5S,6R)-3,4,5-trihydroxy-6-(hydroxymethyl)tetrahydro-2H-pyran-2-yl)oxy)benzoic acid] | 98.9 ± 4.3 | 107.3 ± 7.0 | 118.2 ± 8.1 | 8.6 ± 1.6 | 8.6 ± 0.4 | 10.6 ± 0.3 | 10.8 ± 0.6 | 8 ± 0.3 | 8.9 ± 0.9 | 9.1 ± 0.4 | ~10 | – | 7.7 ± 0.9 | 128 (≈ 321 µM) | – | – | – | – | –
3 | CC(=O)O[C@H]1C(=O)[C@@]2(C)[C@H]([C@H](OC(=O)c3ccccc3)[C@]3(O)C[C@H](OC(=O)[C@H](O)[C@@H](NC(=O)c4ccccc4)c4ccccc4)C(C)=C1C3(C)C)[C@]1(OC(C)=O)CO[C@@H]1C[C@@H]2O [Paclitaxel, reference compound] | 67.3 ± 8.2 | 45.5 ± 6.7 | 37.4 ± 3.5 | – | – | – | – | – | – | – | – | – | – | – | below 70% | – | – | – | –
4 | COc1cc(C(=O)O)cc(CC=C(C)C)c1O [PA, 4-hydroxy-3-methoxy-5-(3-methylbut-2-en-1-yl)benzoic acid] | 118.8 ± 11.6 | 110.5 ± 3.8 | 124.5 ± 2.2 | 31.7 ± 0.4 | 25.4 ± 2.2 | 28 ± 1.3 | 25.6 ± 1.9 | 25.9 ± 1.4 | 29.8 ± 1.3 | 25.6 ± 1.8 | ~10 | – | 29.6 ± 1.1 | – | – | 184.2 (≈ 780 µM) | 16 (≈ 67.7 µM) | 200 (≈ 846 µM) | –
5 | CC(C)NCC(O)COc1cccc2ccccc12 (stereo not shown) [propranolol, reference compound] | – | – | – | – | – | – | – | – | – | – | – | – | – | – | – | – | – | – | 12.4
